The values that follow come from US9567578B1, “Cell line containing a knockout of the glutamine synthetase (GS) gene and a method of producing target proteins using a GS knockout HEK293 cell line” (Korea Advanced Institute of Science and Technology, priority 2016, dated 2017).

The subject of one experiment is HEK293 cell line. The note with it: glutamine-free EX-CELL 293 SFM, MSX 0-1000 μM, suspension culture.
For experiment [1], the system named is wild type HEK293 host cell line. The note with it: glutamine-free selection medium. On the procedure:
(§1) First, the cells were inoculated in T-25 flask containing 5 ml of DMEM supplemented with 1×GSEM, 7% (v/v) FBS and glutamine at the density of 4×10^5 cells/ml. 24 hours later, when the cultured cells reached 90% of confluency in the flask, the vector containing a target protein gene mixed with liposome was additionally added to the gs gene knockout HEK293 cell line prepared in Experimental Example 1. 24 hours later, the selection marker protein (GS) inhibitor MSX was treated to the selection medium (glutamine-free DMEM supplemented with 1×GSEM and 10% (v/v) dFBS) at the concentrations of 0 μM, 25 μM, 50 μM, and 100 μM. The cells introduced with the vector were inoculated in the 96 well plate by 200 μl/well. The wild type HEK293 host cell line was also introduced with a target protein gene by the same manner as described above, followed by the selection from the 96 well plate. The cell concentration for the inoculation into the 96 well plate was determined by the concentration at which only one clone would survive after 3 weeks of selection period. To select the MSX resistant cell line (transformed cell line), the cells showing MSX resistance could be collected as a pool or prepared as each individual clone and herein the cell line was collected as an individual clone.
(§2) In the table above, “survival rate” was obtained by dividing the number of all the wells containing the cell by the number of the total inoculated wells.
(§3) The cells inoculated in a 96 well plate were observed under microscope and the medium was replaced every 5˜7 days. […] The collected cells were inoculated in a 48 well plate (500 μl). When the cells were grown in the well, the cells were inoculated again in a 24 well plate (1 ml). When the cells were fully grown in the 24 well plate, the cells were collected and inoculated in another 24 well plate containing 1 ml of culture medium at the density of 1×10^5 cells/ml. To quantify the production of the target protein, batch culture was performed for 6 days. On the 6th day, the medium was collected and ELISA was performed with the target protein to measure the productivity of each clone. By the method above, 50 clones originated from the gs knockout HEK93 cell line were constructed each in the presence of 0 μM, 25 μM, and 50 μM of MSX. 50 control clones originated from the wild type HEK293 cell line were also constructed for comparison.
(§4) In the Table above, “selection efficiency” indicates the portion of high production clones (those clones that could produce a target protein at least 1 μg/μl until the 6th day) in 50 constructed clones at each condition.

In experiment [2] the test system is HEK293_GS-KO host cell line. As to conditions: glutamine-free selection medium. As to the method:
as §1, §2, §3, §4

Where two headings read alike, the source gives them in different places.

Description for HEK293 cell line: The cell growth rate and the cell viability were investigated in the course of culture of HEK293 cell line with the addition of different concentrations of MSX.
Particularly, HEK293 host cells were inoculated in 50 ml of the glutamine-free EX-CELL® 293 SFM medium (Sigma), and also inoculated in the control medium supplemented with 4 mM glutamine. To the experimental group, MSX, the glutamine synthetase inhibitor, was added at the concentrations of 0 μM, 100 μM, 300 μM, 500 μM, and 1000 μM, respectively. The cell mixture was inoculated in Erlenmeyer flask at the density of 3×10^5 cells/ml, followed by suspension culture. 1 ml of the cell culture fluid was taken from each flask every 24 hours, followed by investigation of the cell concentration and the cell viability.

In the case of `CS(=N)(=O)CC[C@H](N)C(=O)O` (stereo partly shown) [MSX, methionine sulfoximine], the “resistance against MSX (cell growth and cell viability)” value in the experiment with HEK293 cell line is “high resistance”. In addition, the Survival rate in experiment [1] (MSX 25 μM, inoculation 1 cells/96 well) was 22.9%; in experiment [1] (MSX 50 μM, inoculation 10 cells/96 well), 28.1%; in experiment [1] (MSX 100 μM, inoculation 500 cells/96 well), 75.8%; in experiment [2] (MSX 25 μM, inoculation 2000 cells/96 well), 11.9%; in experiment [2] (MSX 50 μM, inoculation 2000 cells/96 well), 2.3%; in experiment [2] (MSX 100 μM, inoculation 5000 cells/96 well) it was 0.5%.
